Source: PMC12071365, “Discovery of Boronic Acids-Based β-Lactamase Inhibitors Through In Situ Click Chemistry” (International Journal of Molecular Sciences, 2025)

Columns and labels:
AmpC [1] = target: T1, AmpC (Escherichia coli, UniProt P00811); test: Competitive inhibition assay with nitrocefin, Ki; format: biochemical; parameters: made in house; conditions: AmpC; values in nM
Method: (§1) The β-lactamases used in the present study were from a Clinical Biochemistry Laboratory collection (Department of Biotechnological and Applied Clinical Sciences, University of L’Aquila, L’Aquila, Italy). […] The concentration of each enzyme was determined by a Bradford assay.
The plot v0/vi versus [I] yielded a straight line of slope KM/(KM + S) × Ki.
Figure 9 Compounds synthesised and their biological evaluation. AC = Amplification coefficient. […] Light blue indicates the compounds from the AmpC screening.

AmpC [2] = target: T1, AmpC; parameters: made in house; conditions: AmpC 20 mol%; warhead 3 + alkyne cluster; 37 °C, 24 h
Method: Following the same conditions used for the multicomponent screening with KPC-2, the in situ click chemistry experiment was performed using AmpC as template.
(§2) Binary and multicomponent KTGS. […] The microtube was shaken at 300 rpm at 37 °C for 24 h. Reactions were transferred into a LC–MS vial and directly injected (10 µL) for liquid chromatography–mass spectrometry (LC–MS). Reactions were analysed with an Ultimate 3000 UHPLC coupled to a Q-exactive hybrid quadrupole-orbitrap mass spectrometer via an HESI-II heated electrospray ionisation source. The chromatographic separation was performed injecting a 10 µL sample volume on a Hypersil Gold C18 100 × 2.1 mm, 1.9 µm column (Thermo Fisher Scientific), kept at 30 °C eluting with 0.3 mL/min flow of ultrapure water (A) and methanol (B), both with 0.1% formic acid as mobile phase. […] A data-dependent mass spectrometric data acquisition strategy was used for full MS/DD-MS2. […] An inclusion list was eventually used to target the MS2 spectra acquisition of preferred ion species. Detection was based on calculated [M+H]^+ and [M−H]^− molecular ions with a 5 ppm accuracy tolerance for their respective ion chromatogram extraction. Peak retention time and area of detected target compounds was used for their detection and semi-quantitative evaluation in between reaction batches.
For controls (buffer and BSA), AmpC/KPC-2 is replaced with no enzyme (buffer volume 95 µL) and BSA (stock 100 µM, final concentration 5 µM, buffer volume 90 µL). Hits were identified in each cluster by mass and retention time and compared with both controls (buffer and BSA) and synthetically prepared triazoles obtained in mixtures.

AmpC [3] = target: T1, AmpC; test: Binary in situ click chemistry between 3 and Al-12, with or without SM23; parameters: made in house; conditions: binary 3 + Al-12; AmpC 20 mol%; SM23 1 mol%
Method: as §2
For controls (buffer and BSA), AmpC/KPC-2 is replaced with no enzyme (buffer volume 95 µL) and BSA (stock 100 µM, final concentration 5 µM, buffer volume 90 µL). […]

AmpC [4] = target: T1, AmpC; test: LC-MS t-SIM detection of boronic acids incubated with AmpC; parameters: made in house; conditions: 24 h, 37 °C
Source text: Given that boronic acids act as transition-state inhibitors by binding the catalytic serine of β-lactamases through a reversible covalent bond, we aimed to determine whether the in situ click chemistry reaction products were quantitatively detected during LC–MS analysis. Although boronic acids are reversible binders, their fast on–slow off behaviour raised concerns that triazole product formation might be underestimated due to covalent adducts forming with the protein target. To investigate this, compound 10a, warhead 3, and compounds 8 and 9 were incubated with AmpC (1:1 or 1:5 protein:compound ratio), and their detection was monitored over 24 h (Figure 10). […] The percentage of boronic acids detected was estimated using peak area measurements in the LC–MS-targeted SIM mode, with quantification being performed using calibration curves. The experiments were conducted at 37 °C in a 95:5 sodium phosphate 50 mM pH 7.0:DMSO mixture.
Figure 10 The % of detection of 10a (grey box), 3 (yellow box), 8 (green box), and 9 (blue box) over the course of the 24 h using the t-SIM method. Each cpd was tested in presence of 20% mol of AmpC or stoichiometric amount of AmpC. Each box includes 4 columns corresponding to % boronic acid detected at a certain time point (0, 8, 16, and 24 h).

OXA-48 = OXA-48 (Klebsiella pneumoniae, UniProt Q6XEC0); test: KM of reporter substrate (Hanes-Woolf); format: biochemical; conditions: NaPi 50 mM pH 7.0
Method: (§3) The β-lactamases used in the present study were from a Clinical Biochemistry Laboratory collection (Department of Biotechnological and Applied Clinical Sciences, University of L’Aquila, L’Aquila, Italy). All enzymes show a purity degree of higher than 95%. The concentration of each enzyme was determined by a Bradford assay.

NDM-1 = NDM-1 (Klebsiella pneumoniae, UniProt C7C422); conditions: read-out: KM substrate, HEPES 20 mM pH 7.0 + 20 µM Zn
Method: as §1

AmpC [5] = target: T1, AmpC; conditions: read-out: KM substrate; pH 7
Method: as §1

KPC-53 = KPC-53 (Klebsiella pneumoniae, UniProt Q9F663, DUP166-167/H272Y); conditions: read-out: KM substrate, NaPi 50 mM pH 7.0
Method: as §3

SHV-12 = SHV-12 (Klebsiella pneumoniae, UniProt P0AD64, E235K/G234S/L31Q); conditions: read-out: KM substrate, NaPi 50 mM pH 7.0
Method: as §3

KPC-2 = target: T2, KPC-2 (Klebsiella pneumoniae, UniProt Q9F663); parameters: method as in PMID 26102369, PMID 34970229, PMID 37358467, PMID 26729491; conditions: ref [17],[19],[35],[36]; cited from earlier work
T2 construct: made in house

ADC-7 = target: ADC-7; parameters: method as in PMID 26102369, PMID 34970229, PMID 37358467, PMID 26729491; conditions: ref [17],[19],[35],[36]; cited from earlier work

T1 sequence (P00811 20-377): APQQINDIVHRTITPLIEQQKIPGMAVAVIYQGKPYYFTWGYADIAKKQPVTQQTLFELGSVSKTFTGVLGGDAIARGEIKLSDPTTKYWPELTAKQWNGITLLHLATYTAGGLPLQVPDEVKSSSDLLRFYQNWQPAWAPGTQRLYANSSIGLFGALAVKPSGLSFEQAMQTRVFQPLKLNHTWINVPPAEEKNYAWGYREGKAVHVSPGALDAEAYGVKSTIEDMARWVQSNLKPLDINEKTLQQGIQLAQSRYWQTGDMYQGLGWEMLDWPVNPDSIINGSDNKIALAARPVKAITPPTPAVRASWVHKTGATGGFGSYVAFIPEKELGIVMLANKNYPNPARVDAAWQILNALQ

Question: Which Ki (AmpC [1]) does the source give for `O=S(=O)(NCc1cnnn1Cc1cccc(B(O)O)c1)C1CCCCC1` [10a] here?
Answer: Its Ki is 140 nM.

Question: What about the “AC (amplification coefficient)” value (AmpC [2]) of the same molecule?
Answer: The value was 5-6.

Question: And the “AC 10/10a” value (AmpC [3])?
Answer: Its value is 1-2.

Question: What about the “% boronic acid detected (remaining)” value (AmpC [4]; 20 mol% AmpC, sodium phosphate pH 7.0:DMSO 95:5) of the same molecule?
Answer: Its value is 83%.

Question: What about the “boronic acid level detected” value (AmpC [4]; stoichiometric AmpC) of the same molecule?
Answer: The value was “remained stable”.

Question: For `C[C@@H](O)[C@H]1C(=O)N2C(C(=O)O)=C(SCCN=CN)C[C@H]12` [IMI, Imipenem], which Km (OXA-48) is on record?
Answer: The Km was 13 ± 1 µM.

Question: Which Km (NDM-1) does the source give for `C[C@@H](O)[C@H]1C(=O)N2C(C(=O)O)=C(S[C@@H]3CN[C@H](C(=O)N(C)C)C3)[C@H](C)[C@H]12` [MPM, Meropenem] here?
Answer: Its Km is 80 ± 1 µM.

Question: What does the source list for `O=C(Cc1cccs1)N[C@@H]1C(=O)N2C(C(=O)O)=C(/C=C/c3ccc([N+](=O)[O-])cc3[N+](=O)[O-])CS[C@H]12` [NCF, Nitrocefin]?
Answer: Km (AmpC [5]): 118 ± 2 µM; Km (KPC-53): 106 ± 2 µM; Km (SHV-12): 50 ± 3 µM

Question: Which results are given for `O=C(Cc1cccs1)NC(Cn1cc(C(=O)O)nn1)B(O)O` (stereo not drawn) [S02030]?
Answer: IC50 (KPC-2): 80 nM; Ki (ADC-7): 45 nM
